Test results published in paper PMC9036659, “Boron-containing capsaicinoids” (RSC Advances, 2021).
In brackets after ≈: the same amount, converted by molar mass. Where two headings read alike, the source gives them in different places. Marks after values point to notes of the source that are not given here.

Key:
Format in all cases: cell-based
[1] = system: green monkey kidney cells Vero (ATCC CCL-81); assay: Cytotoxicity assay (Alamar blue), Vero; details: for IC50: Chlorocebus sabaeus, Vero, read-out: IC50 Vero (normal cell line)
Experimental: (§1) The cells (human foreskin BJ fibroblast cells (ATCC CRL-2522), green monkey kidney cells Vero (ATCC CCL-81), human breast adenocarcinoma cells (ATCC HTB-26 MDA-MB 231), human breast adenocarcinoma cells (MCF7 ATCC HTB-22), and human colorectal carcinoma cells (HCT116 ATCC CCL-247)) were grown to 80% confluency, the cells were counted, diluted, and plated into treated 96-well cell culture plates. The BJ fibroblast and Vero cells were plated at a cell density of 10 000 cells per well and the HTB26, HCT116 and MCF7 cells were plated at cell density of 5000 cells per well in 90 μL of respective growth medium (without the addition of antibiotics) and incubated for 24 h to allow cells to adhere to the plates before treatment. Pure compounds were tested in triplicate in serial dilutions of seven concentrations ranging from 2 to 128 μg mL^−1 per well (final well volume of 100 μL, 1% DMSO per well). Each of the cell lines were incubated at 37 °C in a humidified atmosphere of 5% CO2; the BJ fibroblast and Vero cells for 24 h and the HTB-26, HCT116 and MCF7 cells for 72 h. Each plate contained four uninoculated positive controls, four untreated negative controls, and one column containing a concentration range for doxorubicin. Alamar blue was added, 24 h after the treatment, and fluorescence was monitored using a Cytation Gen 5 plate reader using 560 nm Ex/590 Em both at time zero and 4 h after Alamar blue addition. The inferred percentage of cell viability relative to vehicle control wells were calculated after subtracting the time zero emission 590 nm measurement from the final reading and the IC50 was determined. […]
(§2) Cytotoxicity Assay Data Alamar blue was added, 24 h after the treatment, and fluorescence was monitored using a Cytation Gen 5 plate reader using 560 nm Ex/590 Em both at time zero and 4 h after Alamar blue addition. The inferred percentage of cell viability relative to vehicle control wells were calculated after subtracting the time zero emission 590 nm measurement from the final reading and the IC50 was determined.

[2] = system: vancomycin-resistant Enterococcus faecium VRE 379; assay: Antimicrobial assay, VRE (PrestoBlue fluorescence); details: 22 h, 37 °C, Inactive = inhibition above 300 μM
Experimental: (§3) The microorganisms (methicillin-resistant S. aureus MRSA 310, vancomycin-resistant E. faecium VRE 379, S. warneri (ATCC 17917), P. vulgaris (ATCC 12454), P. aeruginosa (ATCC 14210), and C. albicans (ATCC 14035)) were grown overnight on agar media. The following day the cultures were transferred into 0.9% saline water into a sterile glass tube. Using the McFarland reader, the turbidity was determined and further diluted into their respective media. The pure compounds were tested at seven different concentrations ranging from 2 to 128 μg mL^−1 in triplicate. Samples were plated into 96 well plates (10 μL in 20% DMSO) and then diluted pathogen (90 μL) was pipetted into the pre-prepared sample plates yielding 5 × 10^5 cfu mL^−1 with a final volume of 100 μL. Antibiotics that are active against specific pathogens were used as positive controls. The plates were incubated into a 37 °C incubator for 22 h. Growth of S. warneri. P. vulgaris, P. aeruginosa and C. albicans were measured by reading optical density (OD600), or in the case of slow growing microorganisms (MRSA and VRE), PrestoBlue was used to assess metabolic activity by measuring fluorescence (535–560)/(590–615) (excitation/emission) using a Thermo Scientific Varioskan Flash plate reader at time zero and then again after incubation of the plates for 22 h at 37 °C. After subtracting the time zero OD600 from the final reading, the percentages of microorganism survival relative to vehicle control wells were calculated. […]
(§4) Antimicrobial Assay Data Growth of S. warneri. P. vulgaris, P. aeruginosa and C. albicans were measured by reading optical density (OD600), or in the case of slow growing microorganisms (MRSA and VRE), PrestoBlue was used to assess metabolic activity by measuring fluorescence (535-560)⁄(590-615) (excitation/emission) using a Thermo Scientific Varioskan Flash plate reader at time zero and then again after incubation of the plates for 22 h at 37 °C. After subtracting the time zero OD600 from the final reading, the percentages of microorganism survival relative to vehicle control wells were calculated. […]

[3] = system: human foreskin BJ fibroblast cells (ATCC CRL-2522); assay: Cytotoxicity assay (Alamar blue), BJ; details: for IC50: Homo sapiens, Fibroblast, read-out: IC50 BJ (normal cell line)
Experimental: as §1, §2

[4] = system: methicillin-resistant Staphylococcus aureus MRSA 310; assay: Antimicrobial assay, MRSA (PrestoBlue fluorescence); details: for MRSA MIC90: concentration for 90% growth inhibition; for IC50: read-out: MRSA IC50
Experimental: as §3, §4

[5] = system: human breast adenocarcinoma cells (ATCC HTB-26 MDA-MB 231); assay: Cytotoxicity assay (Alamar blue), HTB-26; details: for IC50: Homo sapiens, HTB26, 72 h incubation, average ± SD, Inactive = inhibition above 300 μM, read-out: IC50 HTB (cancer cell line)
Experimental: as §1, §2

[6] = system: human colorectal carcinoma cells (HCT116 ATCC CCL-247); assay: Cytotoxicity assay (Alamar blue), HCT116; details: for IC50: Homo sapiens, HCT-116, 72 h incubation, average ± SD, Inactive = inhibition above 300 μM, read-out: IC50 HCT (cancer cell line)
Experimental: as §1, §2

[7] = system: human breast adenocarcinoma cells (MCF7 ATCC HTB-22); assay: Cytotoxicity assay (Alamar blue), MCF7; details: for IC50: Homo sapiens, MCF7, 72 h incubation, average ± SD, Inactive = inhibition above 300 μM, read-out: IC50 MCF7 (cancer cell line)
Experimental: as §1, §2

[8] = system: Staphylococcus warneri (ATCC 17917); assay: Antimicrobial assay, S. warneri (OD600); details: for MIC90 / IC50: Staphylococcus warneri; for MIC90: read-out: S. warneri MIC90; for IC50: read-out: S. warneri IC50
Experimental: as §3, §4

[9] = 24 h incubation, average ± SD, Inactive = inhibition above 300 μM
[10] = 22 h, 37 °C, Inactive = inhibition above 300 μM
[11] = Staphylococcus aureus, MRSA, 22 h, 37 °C, average ± SD, Inactive = inhibition above 300 μM

SMILES	VRE MIC90 [2]	VRE IC50 ([2]; average ± SD)	antimicrobial activity against MRSA (in words) [4]	MRSA MIC90 [4, 10]	IC50 [4, 11]	cytotoxic activity against HTB-26 MDA-MB 231 (in words) [5]	IC50 [5]	cytotoxic activity against HCT116 (in words) [6]	IC50 [6]	cytotoxic activity against MCF7 (in words) [7]	IC50 [7]	IC50 [1, 9]	IC50 [3, 9]	also measured
COc1ccc(CN(C(=O)CCCCB2OC(C)(C)C(C)(C)O2)c2ccccc2)cc1OC [Compound 31, N-(3,4-dimethoxybenzyl)-N-phenyl-5-(4,4,5,5-tetramethyl-1,3,2-dioxaborolan-2-yl)pentanamide]	Inactive	Inactive	low activity	Inactive	121 ± 2 µM	selective but low to moderate activity	58 ± 3.5 µM	selective but low to moderate activity	126 ± 16.5 µM	selective but low to moderate activity	108 ± 30.9 µM			IC50 Vero (normal cell line) [1, 9]: Inactive; IC50 BJ (normal cell line) [3, 9]: Inactive; antimicrobial activity against S. warneri (in words) [8]: low activity; MIC90 ([8]; ATCC17917, 22 h, 37 °C, Inactive = inhibition above 300 μM): 282 µM (≈ 128 µg/mL); IC50 ([8]; ATCC17917, 22 h, 37 °C, average ± SD, Inactive = inhibition above 300 μM): 135 ± 15.4 µM
COc1ccc(CN(C(=O)CCCCCCCCB2OC(C)(C)C(C)(C)O2)c2ccccc2)cc1OC [Compound 32, N-(3,4-dimethoxybenzyl)-N-phenyl-9-(4,4,5,5-tetramethyl-1,3,2-dioxaborolan-2-yl)nonamide]	Inactive	Inactive	only active against MRSA	Inactive	154 ± 37.1 µM	unselective cytotoxic effects	42.6 ± 1.8 µM	unselective cytotoxic effects	80.1 ± 3.9 µM	unselective cytotoxic effects	68.5 ± 15.1 µM	77.1 ± 8.4 µM	112 ± 10 µM	cytotoxic activity against Vero (in words) [1]: unselective cytotoxic effects; cytotoxic activity against BJ (in words) [3]: unselective cytotoxic effects; S. warneri MIC90 [8, 10]: Inactive; S. warneri IC50 ([8]; 22 h, 37 °C, average ± SD, Inactive = inhibition above 300 μM): Inactive
COc1cccc2c1C(=O)c1c(O)c3c(c(O)c1C2=O)C[C@@](O)(C(=O)CO)C[C@@H]3O[C@H]1C[C@H](N)[C@H](O)[C@H](C)O1 [Doxorubicin, reference compound]							0.4 ± 0.2 µM		< 0.00012 µM		0.2 ± 0.2 µM	> 14.7 µM	> 14.7 µM	
CO[C@H]1/C=C/O[C@@]2(C)Oc3c(C)c(O)c4c(O)c(c(/C=N/N5CCN(C)CC5)c(O)c4c3C2=O)NC(=O)/C(C)=C\C=C\[C@H](C)[C@H](O)[C@@H](C)[C@@H](O)[C@@H](C)[C@H](OC(C)=O)[C@@H]1C [Rifampicin, reference compound]														MIC90 [2]: 2.4 µM (≈ 1.98 µg/mL); IC50 ([2]; average ± SD): 1.2 ± 0.1 µM
CN[C@H](CC(C)C)C(=O)N[C@H]1C(=O)N[C@@H](CC(N)=O)C(=O)N[C@H]2C(=O)N[C@H]3C(=O)N[C@H](C(=O)N[C@H](C(=O)O)c4cc(O)cc(O)c4-c4cc3ccc4O)[C@H](O)c3ccc(c(Cl)c3)Oc3cc2cc(c3O[C@@H]2O[C@H](CO)[C@@H](O)[C@H](O)[C@H]2O[C@H]2C[C@](C)(N)[C@H](O)[C@H](C)O2)Oc2ccc(cc2Cl)[C@H]1O [Vancomycin, reference compound]				1.4^a μM										IC50 ([4]; Staphylococcus aureus, MRSA, 22 h): 0.5 ± 0.1 µM; MIC90 ([4]; Staphylococcus aureus, MRSA, 22 h, read-out: MRSA MIC90): 1.4 µM (≈ 2.03 µg/mL); IC50 ([8]; ATCC17917, 22 h): 0.3 ± 0.1 µM; MIC90 ([8]; ATCC17917, 22 h): 0.3 µM (≈ 0.435 µg/mL)
